Reference: US10052320B2, “Substituted quinoxalines as FGFR kinase inhibitors” (ASTEX THERAPEUTICS LIMITED, priority 2011, dated 2018)

Experiments:
FGFR1 (h) = FGFR1 (h) (Homo sapiens, UniProt P11362); assay: FGFR1 (enzymatic assay), TR-FRET; assay type: biochemical; settings: read-out: FGFR 1 pIC50 (converted)
Protocol: In a final reaction volume of 30 μL, FGFR1 (h) (25 ng/ml) was incubated with 50 mM HEPES pH 7.5, 6 mM MnCl2, 1 mM DTT, 0.1 mM Na3VO4, 0.01% Triton-X-100, 500 nM Btn-Flt3 and 5 μM ATP in the presence of compound (1% DMSO final). […] Time-Resolved Fluorescence Resonance Energy Transfer (TR-FRET) signal (ex340 nm. Em 620 nm, em 655 nm) was measured afterwards and results are expressed in RFU (Relative Fluorescence Units).

KDR (h) (VEGFR2) = KDR (h) (VEGFR2) (Homo sapiens, UniProt P35968); assay: KDR (VEGFR2) (enzymatic assay), TR-FRET; assay type: biochemical
Chain of KDR (h) (VEGFR2) (P35968 20-1356): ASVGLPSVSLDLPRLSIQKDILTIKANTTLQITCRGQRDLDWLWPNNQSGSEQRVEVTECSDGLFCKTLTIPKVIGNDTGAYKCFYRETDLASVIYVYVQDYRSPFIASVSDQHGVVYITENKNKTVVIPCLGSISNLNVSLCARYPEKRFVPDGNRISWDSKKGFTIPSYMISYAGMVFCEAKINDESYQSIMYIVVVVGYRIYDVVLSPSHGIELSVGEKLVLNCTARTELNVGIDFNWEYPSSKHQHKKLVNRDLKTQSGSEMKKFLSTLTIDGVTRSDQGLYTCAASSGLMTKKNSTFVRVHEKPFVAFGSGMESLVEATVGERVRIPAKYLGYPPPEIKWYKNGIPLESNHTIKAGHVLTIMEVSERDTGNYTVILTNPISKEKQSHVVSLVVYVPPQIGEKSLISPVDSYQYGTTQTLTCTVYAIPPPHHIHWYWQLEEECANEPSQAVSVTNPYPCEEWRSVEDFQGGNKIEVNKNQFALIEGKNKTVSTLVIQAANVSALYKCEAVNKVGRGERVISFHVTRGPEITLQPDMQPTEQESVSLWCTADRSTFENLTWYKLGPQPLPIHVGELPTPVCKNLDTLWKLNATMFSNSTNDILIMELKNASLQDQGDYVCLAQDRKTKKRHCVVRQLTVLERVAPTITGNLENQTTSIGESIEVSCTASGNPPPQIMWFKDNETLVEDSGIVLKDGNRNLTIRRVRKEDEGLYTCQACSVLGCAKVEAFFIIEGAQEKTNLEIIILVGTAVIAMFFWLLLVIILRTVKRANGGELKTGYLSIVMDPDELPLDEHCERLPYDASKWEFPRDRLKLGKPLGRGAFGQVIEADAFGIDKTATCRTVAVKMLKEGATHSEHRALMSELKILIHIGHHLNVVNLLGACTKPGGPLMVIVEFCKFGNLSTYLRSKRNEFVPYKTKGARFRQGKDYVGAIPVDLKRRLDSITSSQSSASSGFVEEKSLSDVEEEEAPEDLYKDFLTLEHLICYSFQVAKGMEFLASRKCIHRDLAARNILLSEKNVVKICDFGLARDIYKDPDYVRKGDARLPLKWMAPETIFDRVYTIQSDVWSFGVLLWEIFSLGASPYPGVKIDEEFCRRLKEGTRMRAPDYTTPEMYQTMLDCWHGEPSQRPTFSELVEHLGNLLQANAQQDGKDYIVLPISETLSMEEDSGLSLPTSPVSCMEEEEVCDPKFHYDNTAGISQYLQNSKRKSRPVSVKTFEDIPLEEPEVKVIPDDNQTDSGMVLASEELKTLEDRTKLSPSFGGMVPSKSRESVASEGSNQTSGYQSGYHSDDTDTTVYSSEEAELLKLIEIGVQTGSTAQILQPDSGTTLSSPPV
How it was run: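 Read-out is TR-FRET (ex 340 nm, em 620 and 655 nm) in RFU, after an EDTA stop carrying Eu-labelled anti-phosphotyrosine and SA-XL-665 (60 min, RT). The preceding kinase reaction ran 120 min at RT with 150 ng/ml enzyme, 500 nM Btn-Flt3 and 3 μM ATP.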

[1] = biological target: T1, Ba/F3-Flt3-transfected cells (Homo sapiens, UniProt P36888, cells depend on it, form not given); assay: Ba/F3-Flt3 (minus IL3) cellular proliferation assay, Alamar Blue; assay type: cell-based; settings: minus IL3
T1 sequence (P36888 1-993): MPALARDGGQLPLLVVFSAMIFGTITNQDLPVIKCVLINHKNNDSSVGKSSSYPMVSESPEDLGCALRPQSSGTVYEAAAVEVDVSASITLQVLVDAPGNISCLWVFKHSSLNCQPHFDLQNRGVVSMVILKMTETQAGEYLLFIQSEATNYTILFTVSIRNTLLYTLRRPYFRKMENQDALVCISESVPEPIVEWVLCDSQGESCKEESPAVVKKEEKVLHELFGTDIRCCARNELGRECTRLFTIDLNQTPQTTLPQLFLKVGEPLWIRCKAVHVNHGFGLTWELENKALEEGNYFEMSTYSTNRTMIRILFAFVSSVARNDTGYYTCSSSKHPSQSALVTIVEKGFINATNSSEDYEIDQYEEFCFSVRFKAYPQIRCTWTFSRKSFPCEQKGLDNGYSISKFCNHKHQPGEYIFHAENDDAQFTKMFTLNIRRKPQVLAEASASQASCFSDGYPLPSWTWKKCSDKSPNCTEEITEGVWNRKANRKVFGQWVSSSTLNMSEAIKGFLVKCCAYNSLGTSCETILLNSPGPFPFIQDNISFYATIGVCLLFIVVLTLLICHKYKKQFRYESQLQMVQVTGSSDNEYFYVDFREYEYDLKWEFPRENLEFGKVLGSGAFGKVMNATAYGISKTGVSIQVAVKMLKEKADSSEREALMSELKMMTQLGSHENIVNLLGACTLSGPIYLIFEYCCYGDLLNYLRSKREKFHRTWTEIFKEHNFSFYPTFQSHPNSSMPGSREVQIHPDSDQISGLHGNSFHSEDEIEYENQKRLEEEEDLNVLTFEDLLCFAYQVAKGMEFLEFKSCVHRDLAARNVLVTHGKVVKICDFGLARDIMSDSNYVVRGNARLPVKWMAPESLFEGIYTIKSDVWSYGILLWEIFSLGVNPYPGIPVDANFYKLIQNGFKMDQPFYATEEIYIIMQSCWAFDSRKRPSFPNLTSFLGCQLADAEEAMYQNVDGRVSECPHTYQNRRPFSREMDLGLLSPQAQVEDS

[2] = biological target: Ba/F3-FGFR4-transfected cells (Homo sapiens, UniProt P22455); assay: Ba/F3-FGFR4 cellular proliferation assay, Alamar Blue; assay type: cell-based
Chain of Ba/F3-FGFR4-transfected cells (P22455 whole entry, change not shown): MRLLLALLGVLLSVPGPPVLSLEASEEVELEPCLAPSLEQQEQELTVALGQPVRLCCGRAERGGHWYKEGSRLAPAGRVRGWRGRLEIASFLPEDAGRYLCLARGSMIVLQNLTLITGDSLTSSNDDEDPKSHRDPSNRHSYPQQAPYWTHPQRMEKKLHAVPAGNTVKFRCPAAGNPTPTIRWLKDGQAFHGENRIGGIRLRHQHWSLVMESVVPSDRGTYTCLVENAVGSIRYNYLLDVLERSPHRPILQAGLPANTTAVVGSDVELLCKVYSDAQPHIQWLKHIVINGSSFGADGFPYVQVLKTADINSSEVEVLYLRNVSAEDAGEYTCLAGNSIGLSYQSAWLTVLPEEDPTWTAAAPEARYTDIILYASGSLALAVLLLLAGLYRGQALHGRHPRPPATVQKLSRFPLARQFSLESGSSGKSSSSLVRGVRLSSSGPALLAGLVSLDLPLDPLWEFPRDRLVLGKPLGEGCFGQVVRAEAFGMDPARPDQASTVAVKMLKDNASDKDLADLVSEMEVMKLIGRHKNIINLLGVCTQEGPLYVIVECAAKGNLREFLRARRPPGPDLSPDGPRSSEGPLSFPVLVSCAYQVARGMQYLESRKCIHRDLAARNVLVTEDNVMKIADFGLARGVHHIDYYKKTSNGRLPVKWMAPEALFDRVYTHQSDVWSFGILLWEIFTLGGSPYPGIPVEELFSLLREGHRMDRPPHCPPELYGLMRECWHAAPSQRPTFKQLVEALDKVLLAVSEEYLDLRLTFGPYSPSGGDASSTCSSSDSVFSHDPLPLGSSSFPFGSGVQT
How it was run: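 Ba/F3 cells transfected with FGFR4, 20000 cells/well in phenol red-free RPMI-1640 with 10% FBS, were exposed to compound for 24 h at 37° C, 5% CO2. Alamar Blue (resazurin) was then added for 4 h, and fluorescence was read at ex 540/em 590 nm.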

Chain of FGFR1 (h) (P11362 22-822): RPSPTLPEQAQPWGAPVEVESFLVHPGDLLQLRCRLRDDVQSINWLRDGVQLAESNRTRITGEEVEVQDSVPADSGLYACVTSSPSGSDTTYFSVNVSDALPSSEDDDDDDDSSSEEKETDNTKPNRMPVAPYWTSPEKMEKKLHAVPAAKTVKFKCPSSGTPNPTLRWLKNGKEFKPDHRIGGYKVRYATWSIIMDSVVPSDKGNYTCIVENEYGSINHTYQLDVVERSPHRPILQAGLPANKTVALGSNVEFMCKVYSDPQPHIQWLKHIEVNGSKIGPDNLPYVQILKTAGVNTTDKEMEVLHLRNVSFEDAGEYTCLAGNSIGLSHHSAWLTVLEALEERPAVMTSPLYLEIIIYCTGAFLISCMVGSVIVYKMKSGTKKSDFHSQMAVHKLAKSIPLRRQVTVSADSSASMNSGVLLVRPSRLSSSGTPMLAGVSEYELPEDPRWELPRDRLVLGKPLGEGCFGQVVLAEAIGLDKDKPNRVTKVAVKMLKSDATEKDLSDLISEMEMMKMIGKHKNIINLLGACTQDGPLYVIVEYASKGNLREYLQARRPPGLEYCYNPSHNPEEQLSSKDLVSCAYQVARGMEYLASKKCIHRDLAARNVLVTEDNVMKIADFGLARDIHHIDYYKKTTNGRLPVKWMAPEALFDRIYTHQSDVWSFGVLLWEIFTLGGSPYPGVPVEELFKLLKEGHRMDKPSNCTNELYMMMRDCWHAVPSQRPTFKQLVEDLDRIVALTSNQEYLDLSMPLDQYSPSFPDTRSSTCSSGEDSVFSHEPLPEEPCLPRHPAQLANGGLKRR

Compound | IC50 (FGFR1 (h)) [nM] | IC50 (KDR (h) (VEGFR2)) [nM] | BAF3-FLT3 (MIN IL3) 384 well pIC50 [1] | BAF3-FGFR4 pIC50 [2] | BAF3-FLT3 (MIN IL3) 96 well pIC50 [1]
COc1cc(OC)cc(N(CCNC(C)C)c2ccc3ncc(-c4ccn(C)c4)nc3c2)c1 [Compound 8] | 0.457 | 20 | 5.2 | 7.2 | –
COc1cc(OC)cc(N(CCO)c2ccc3ncc(-c4cccnc4)nc3c2)c1 [Compound 9] | 10 | 295 | <5 | 5.8 | –
COc1cc(OC)cc(N(CCNC(C)C)c2ccc3ncc(-c4ccncc4)nc3c2)c1 [Compound 12] | 2.14 | 95.5 | 5.14 | 6.8 | –
COc1cc(OC)cc(N(CC2CC2)c2ccc3ncc(-c4nnn[nH]4)nc3c2)c1 [Compound 41] | 57.5 | 3310 | <5 | <5 | <5
CNCCN(c1cc(OC)cc(OC)c1)c1ccc2ncc(-c3ccc(NC(=O)OC(C)(C)C)nc3)nc2c1 [Compound 81] | 10.2 | 209 | 5.76 | 5.9 | –
COc1cc(OC)cc(N(CC2CC2)c2ccc3ncc(Nc4nncs4)nc3c2)c1 [Compound 102] | > 1000 | > 1000 | <5 | <5 | ~5
COc1cc(OC)cc(N(CCCO)c2ccc3ncc(-c4ccc(N(C)C(=O)OC(C)(C)C)nc4)nc3c2)c1 [Compound 125] | 34.7 | > 1000 | <5 | <5 | –
COc1cc(OC)cc(N(CC2CC2)c2ccc3ncc(-c4cn(CCN5CCOCC5)nn4)nc3c2)c1 [Compound 24] | 20.4 | 832 | <5 | ~5.1 | <5
